# Measured values published in ChEMBL document CHEMBL1145262, “Aryl sulfones: a new class of gamma-secretase inhibitors” (Bioorg Med Chem Lett, 2005).
# Target: Gamma-secretase
# Assay: In vitro inhibition of gamma-secretase as amyloid peptide production in SH-SY5Y cells
# Type: functional, cell-based, Homo sapiens
row,Compound,IC50 [nM]
1,O=S(=O)(Nc1cc(F)ccc1F)c1ccc(Cl)cc1,> 10000
2,O=S(=O)(Cc1cc(F)ccc1F)c1ccc(Cl)cc1,4410
3,CC(C)C(c1cc(F)ccc1F)S(=O)(=O)c1ccc(Cl)cc1 (centres undefined),70
4,O=S(=O)(c1ccc(Cl)cc1)C1(c2cc(F)ccc2F)CCCCC1,3
5,CN(c1cc(F)ccc1F)S(=O)(=O)c1ccc(Cl)cc1,1900
6,C[C@H](CO)N(c1cc(F)ccc1F)S(=O)(=O)c1ccc(Cl)cc1,27
7,COC(=O)C(C)C(c1cc(F)ccc1F)S(=O)(=O)c1ccc(Cl)cc1 (centres undefined),253
8,COC(=O)C1CC(c2cc(F)ccc2F)(S(=O)(=O)c2ccc(Cl)cc2)CCC1=O (centres undefined),104
9,O=S(=O)(c1ccc(Cl)cc1)C1(c2cc(F)ccc2F)CC2CCC(C2)C1 (stereo in doubt; 20),94
10,O=S(=O)(c1ccc(Cl)cc1)C1(c2cccc(F)c2)CCCCC1,249
11,O=C1CCC(c2cc(F)ccc2F)(S(=O)(=O)c2ccc(Cl)cc2)CC1,22
12,CC(CCO)C(c1cc(F)ccc1F)S(=O)(=O)c1ccc(Cl)cc1 (centres undefined),35
13,CC(CO)C(c1cc(F)ccc1F)S(=O)(=O)c1ccc(Cl)cc1 (centres undefined),304
14,O=S(=O)(c1ccc(Cl)cc1)C1(c2cc(F)ccc2F)CC2CCC(C2)C1 (stereo in doubt; 19),12
15,CC(C)N(c1cc(F)ccc1F)S(=O)(=O)c1ccc(Cl)cc1,170
16,O=S(=O)(c1ccccc1)C1(c2cc(F)ccc2F)CCCCC1,98
17,O=S(=O)(c1ccc(Cl)cc1)C1(c2ccccc2)CCCCC1,461
18,O=S(=O)(c1ccc(Cl)cc1)C1(c2ccccc2F)CCCCC1,55
19,CC(c1cc(F)ccc1F)S(=O)(=O)c1ccc(Cl)cc1 (centres undefined),2470
